Assay results reported in patent publication US12459951B2, “Compounds that interact with RAS superfamily proteins for treatment of cancers, inflammatory diseases, rasopathies, and fibrotic disease” (SHY Therapeutics, LLC, priority 2022, dated 2025).

Key:
[1] = Kinetic Solubility Assay in pH 7.4 Buffer + 2% DMSO; assay type: physicochemical; details: phosphate-buffered saline pH 7.4 with 2% DMSO, aqueous buffer, kinetic from dmso stock, 25° C., two hours
Method: Biological Example 9: Kinetic Solubility
Kinetic solubility assay in pH 7.4 Buffer+2% DMSO (“Kinetic Solubility Assay) was performed according to the following protocol: Briefly, using a 20 mM stock solution of the tested compounds in 100% DMSO, dilutions were prepared to a theoretical concentration of 400 μM in duplicates in phosphate-buffered saline pH 7.4 (138 mM NaCl, 2.7 mM KCl, 10 mM K-phosphate) with 2% final DMSO. The tested compounds dilutions in PBS were further allowed to equilibrate at 25° C. on a thermostatic shaker for two hours and then filtered through HTS filter plates using a vacuum manifold. The filtrates of the test compounds were diluted 2-fold with acetonitrile with 2% DMSO before measuring.
In parallel, using a 20 mM stock solution of the tested compounds in 100% DMSO, dilutions were prepared to theoretical concentrations of 0 μM (blank), 10 μM, 25 μM, 50 μM, 100 μM, and 200 μM in 50% acetonitrile/PBS with 2% final DMSO to generate calibration curves. Ondansetron was used as a reference compound to control proper assay performance. 200 μL of each sample was transferred to a 96-well plate and measured in the 230-550 nm range with a 5 nm step.
The concentrations of compounds in PBS filtrate are calculated using a dedicated Microsoft Excel calculation script. Proper absorbance wavelengths for calculations are selected for each compound manually based on absorbance maximums (absolute absorbance unit values for the minimum and maximum concentration points within the 0-3 OD range). Each final dataset is visually evaluated by the operator, and goodness of fit (R2) is calculated for each calibration curve. The effective range of this assay is approximately 2-400 μM and the compounds returning values close to the upper limit of the range may have higher actual solubility (e.g., 5′-deoxy-5-fluorouridine).
Table 8 show kinetic solubility data for selected compounds tested in the Kinetic Solubility assay described above.

[2] = Mouse Liver Microsome Metabolic Stability Assay; assay type: in vitro ADME; details: pH 7.4, Mouse liver microsomes, 37° C., NADPH, read-out: t½
Method: Biological Example 10: Assessment of Metabolic Stability in Mouse Liver Microsomes
Metabolic Stability Assay: Microsomal incubations were carried out in 96-well plates in 5 aliquots of 30 μL each (one for each time point). Liver microsomal incubation medium comprised of phosphate buffer (100 mM, pH 7.4), MgCl2 (3.3 mM), NADPH (3 mM), glucose-6-phosphate (5.3 mM), glucose-6-phosphate dehydrogenase (0.67 units/ml) with 0.42 mg of liver microsomal protein per mL. In the control reactions the NADPH-cofactor system was substituted with phosphate buffer. Test compounds (2 μM, final solvent concentration 1.6%) were incubated with microsomes at 37° C., shaking at 100 rpm. Each reaction was performed in duplicates. Five time points over 40 minutes were analyzed. The reactions were stopped by adding 5 volumes of methanol containing internal standard to incubation aliquots, followed by protein sedimentation by centrifuging at 5500 rpm for 4 minutes. Supernatants were analyzed using the HPLC system coupled with tandem mass spectrometer.
The elimination constant (kel), half-life (t1/2) and intrinsic clearance (Clint) were determined in plot of […] versus time, using linear regression analysis:
In order to indicate the quality of the linear regression analysis, the R (correlation coefficient) values are provided. In some cases, the last time point is excluded from the calculations to ensure acceptable logarithmic linearity of decay.
Table 9 show metabolic stability data for selected compounds tested in the Mouse Liver Microsome Metabolic Stability assay described above.

Akt phosphorylation = assay: Akt Phosphorylation Assay (western blot), Panc-1; assay type: cell-based, human; details: at 10 μM, * = activation
Summary of the method: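 Phospho-Akt (Ser473) was measured by western blot in lysates of KRas G12D Panc-1 cells exposed to test compound for 6 h at 37 °C, either at 10 μM final with 0.3% DMSO or as serial dilutions for IC50. One format used overnight 0.5% FBS starvation followed by a 15 min pulse of 1.5 ng/ml EGF. The other used cells in 10% FBS with no stimulation.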

Compound	solubility at 2 h [1] [µM]	half-life at 2 µM [2] [min]	% inh of Akt phosphorylation in Panc-1 (Akt phosphorylation)
COc1ccnc(Nc2nc(-c3nccn3C)nn3cc(-c4cccnc4)c(C)c23)c1 [Compound 157, N-(4-Methoxy-pyridin-2-yl)-5-methyl-2-(1-methyl-1H-imidazol-2-yl)-6-(pyridin-3-yl)pyrrolo[2,1-f][1,2,4]triazin-4-amine]	< 10	> 10	D* (85-100% activation)
COc1ccnc(Nc2nc(-c3nccn3C)nn3cc(-c4cccnc4)c(C)c23)n1 [Compound 158, N-(4-Methoxy-pyrimidin-2-yl)-5-methyl-2-(1-methyl-1H-imidazol-2-yl)-6-(pyridin-3-yl)pyrrolo[2,1-f][1,2,4]triazin-4-amine]	10 to 30	< 10	D* (85-100% activation)
